Test results reported in patent publication US8653132B2, “Phosphaplatins and their use in pharmaceutical compositions” (Ohio University, priority 2007, dated 2014).
“Also recorded” adds a separate entry of the source.

Assays:
guanine base = assay: Guanine base binding by proton NMR; settings: cisplatin after 48 hours, am-2 96 hours, dach-2 106 hours
Experimental: FIG. 12 is a comparison of guanine base binding (the predominant DNA binding site of cisplatin) among cisplatin (bottom), am-2 (middle), and dach-2 (top) by proton NMR spectroscopy. […] The bottom spectrum was recorded after 48 hours. The middle and top spectra were recorded after 96 and 106 hours, respectively.
(§1) Proton NMR spectroscopic experiments were conducted on a Bruker 500 MHz NMR instrument in 99% (atom) D2O with a water suppression pulse sequence. Samples contained cisplatin (2.0 mM) or pyrodach-2 (2.0 mM) and nucleotides (5′-dGMP, 5′-dAMP, dGpG (5.0 mM)), and, single- and double stranded DNA (calf thymus, 5.0 mM) at pH 7.0 maintained by phosphate and carbonate buffers (10-20 mM). Reactions of cisplatin (0.25 mM) and pyrodach-2 (0.25 mM) with a synthetic 25-mer: 5′-[…]-3′ (SEQ ID NO: 1) (0.25 mM) were also performed under identical conditions. Reactions were carried out up to 7 days, and ^1H and ^31P NMR spectra were recorded at regular time intervals. Usually, a pulse width of 5 μs with a 1.0 s repetition delay was used for the measurements. Typically, a sweepwidth of 10,000 Hz and 32 K data points were selected to collect the Free Induction Decays. A line broadening factor of 1 Hz was for applied Fourier transformation. The chemical shifts, with reference to H—O-D peak, are at 4.67 ppm.

[1] = tested on: calf-thymus DNA, oligonucleotide, dGpG, 5'-dGMP and 5'-dAMP; assay: Platinum binding to DNA and nucleotides by NMR; settings: 1H NMR, up to seven days
Experimental: (§2) In the associated experiment, dach-2 was allowed to react with double-stranded calf-thymus DNA, a synthetic oligonucleotide (5′-[…]-3′; SEQ ID NO:1), a dinucleotide (dGpG), and nucleotide monophosphates (5′-dGMP and 5′-dAMP) at concentrations as much as 250-times higher than those of cellular doses. The extent of DNA binding was monitored by ^1H NMR spectroscopy. In parallel, similar reactions with cisplatin were conducted under identical conditions.
as §1, with “The chemical shifts, with reference to H—O-D peak, are at 4.67 ppm.” left out

[2] = tested on: A2780 human ovarian cancer cells; assay: Clonogenic assay, A2780; assay type: cell-based; settings: 1 hour drug treatment, 1 week colony formation, read-out: IC50 A780
Experimental: (§3) Human ovarian cancer cells, A2780, were obtained from Dr. Thomas Hamilton (Fox Chase Cancer Center, Philadelphia, Pa.). Cells were cultured on monolayer using RPMI 1640 supplemented with 10% fetal bovine serum, 2 mM glutamine, 0.25 units/mL insulin and penicillin/streptomycin in a 37 degrees C. incubator continuously gassed with 5% CO2. Cells were subcultured using 0.0625% trypsin in HBSS to maintain cells in exponential growth.
(§4) IC50 values were determined using a clonogenic assay. Briefly, 500 A2780 cells from a single cell suspension were plated onto 60mm Petri plates 24 hours before drug treatment to permit cell attachment. On the day of drug treatment, the medium was decanted and replaced with the drug and these treated cells were placed back into the 37 degrees C. incubator for 1 hour. Triplicate plates were set up for each drug concentration. After the 1 hour drug treatment, the drug containing medium was decanted and replaced with fresh medium. These plates were returned to the 37 degrees C. incubator for 1 week for colony formation. Colonies were fixed and stained using 2% crystal violet in absolute methanol. Colonies containing more than 50 cells were scored. The number of scored colonies from the triplicate plates was averaged and this number was divided by the number of cells plated to obtain a value for the fraction of cells forming colonies. These values for fraction of cells forming colonies were then corrected for plating efficiency by dividing it by the number of cells forming colonies in plates that were not treated with drug.

BAK1 = assay: Apoptotic gene array, real-time PCR: BAK1; assay type: cell-based; settings: preliminary
Experimental: (§5) Preliminary gene expression experiments involving complexes of the present invention as compared to cisplatin (data not shown) were carried out with an apoptotic array containing 84 genes that includes the BCL2 superfamily, both pro- and anti-apoptotic, caspases, the BIR-family, TNF receptor […] factors, p53 and its congeners, and fas associated members by real-time PCR. A closer look at the two sets of gene expressions clearly indicates a number of differences in the expression patterns. […] Specifically, fas was over-expressed by 6-fold compared to the control, and TNFRS genes such as TNFRSF-10B was overexpressed by 2-3 folds over controls. These latter receptor factors belong to the fas superfamily.

A2780 cells = assay: Cellular accumulation of platinum by atomic absorption, A2780; assay type: cell-based, human; settings: for Cellular accumulation of platinum: 1 hr exposure
Experimental: (§6) Platinum content was quantitatively estimated on a Graphite Furnace Atomic Absorption Spectrometer (Perkin Elmer AA-600) from calibration curves established by using cisplatin or pyrodach-2 in water. Cells (5×10^6) were seeded in T75 cm^2 flasks. After 24 h, these cells were then treated with the different concentrations (0, 10, 20, 30 and 50 μM) of cisplatin and pyrodach-2. After 1 hr exposure with the platinum complexes, the drug-containing medium was removed and the cells were washed with ice-cold phosphate-buffered saline (PBS). The cells were then trypsinized and centrifuged into a pellet. Cell pellets were digested in concentrated HNO3 and H2O2 prior to analysis, according to the method of McGahan. Data reported in Table 4 were collected from three independent experiments each was carried out in duplicate. For the cisplatin accumulation, data were obtained from triplicate runs from a single sample at a given concentration.

[3] = tested on: synthetic 25-mer oligonucleotide (SEQ ID NO:1); assay: Platinum-DNA binding by NMR, 25-mer oligonucleotide; settings: 1H NMR, identical conditions for both complexes
Experimental: as §2
as §1, with “The chemical shifts, with reference to H—O-D peak, are at 4.67 ppm.” left out

CHO cell line = assay: Cytotoxic assay, CHO; assay type: cell-based
Description: In some embodiments, the complexes of the present invention are useful for treating various cancers. […] The complexes of the present invention are particularly desirable because they may have reduced toxicity in vivo.

[4] = tested on: UMSCC10b (Cisplatin-sensitive) cells; settings: from Zheng et al., Clinical Cancer Research 1997; cited from earlier work
A2780/C30 cells [5] = assay: Cellular accumulation of platinum by atomic absorption, A2780/C30; assay type: cell-based, human; settings: at its IC50 value
A2780/C30 cells [6] = assay: as above; assay type: cell-based, human; settings: 1 hr exposure
Experimental: as §6

fas = assay: Apoptotic gene array, real-time PCR: fas; assay type: cell-based; settings: preliminary
Experimental: as §5

[7] = tested on: A2780/C30 cisplatin-resistant ovarian cell line; assay: Clonogenic assay, cisplatin/carboplatin-resistant C30; assay type: cell-based, human; settings: 1 hour drug treatment, 1 week colony formation
Experimental: as §3, with “A cisplatin-resistant Ovarian cell line (C30) (Hamaguchi, et al., 1993),” for “Human ovarian cancer cells, A2780, were”, “Pa.), was treated with the monomeric platinum complexes of the present invention (shown in FIG. 2). This cell line is also cross resistant to carboplatin.” for “Pa.).”, “0.025%” for “0.0625%”
as §4, with “500 C30” for “500 A2780”, “onto 60 mm” for “onto 60mm”, “the one” for “the 1”, “dividing them” for “dividing it”

BAX = assay: Apoptotic gene array, real-time PCR: BAX; assay type: cell-based; settings: preliminary
Experimental: as §5

[8] = pKa from 31P chemical shift as a function of pH; assay type: physicochemical; settings: for pKa1 / pKa2: calculated from phosphorus-31 chemical shifts

Structure (SMILES) | IC50 [2] [µM] | IC50 (CHO cell line) [µM] | IC50 [7] [µM] | pKa1 [8] | pKa2 [8] | also measured
N.N.[Cl][Pt][Cl] [Cisplatin, cisdiamminedichloroplatinum(II), reference compound] | 7.5 ± 1.5 | 29 ± 3 | 110 ± 11.3 |  |  | guanine base binding (H8 signal) (guanine base): additional signal at 8.43 ppm for H8 proton due to guanine binding to cisplatin; adduct formation with nucleotides [1]: readily formed adducts with all the nucleotides; BAK1 overexpression (BAK1): did not make significant changes; Cellular accumulation of platinum (A2780 cells; A2780, 10 μM): 3.00 ± 0.05 ng/10^6 cells; Cellular accumulation of platinum (A2780 cells; A2780, 20 μM): 5.00 ± 0.06 ng/10^6 cells; Cellular accumulation of platinum (A2780 cells; A2780, 30 μM): 6.00 ± 0.10 ng/10^6 cells; Cellular accumulation of platinum (A2780 cells; A2780, 50 μM): 20.00 ± 1.00 ng/10^6 cells; accumulation in A2780 cells (A2780 cells; at 10 μM concentration): 3.0 ng Pt/10^6 cells; DNA binding, 25-mer oligonucleotide [3]: readily forms covalent adducts with DNA; IC50 [4]: 17 µM; platinum accumulation in the resistant cell lines (A2780/C30 cells [5]): > 5 ng Pt/10^6 cells; Cellular accumulation of platinum (A2780/C30 cells [6]; A2780/C30, 10 μM): 1.00 ± 0.10 ng/10^6 cells; Cellular accumulation of platinum (A2780/C30 cells [6]; A2780/C30, 20 μM): 2.00 ± 0.40 ng/10^6 cells; Cellular accumulation of platinum (A2780/C30 cells [6]; A2780/C30, 30 μM): 2.00 ± 0.50 ng/10^6 cells; Cellular accumulation of platinum (A2780/C30 cells [6]; A2780/C30, 50 μM): 5.00 ± 1.00 ng/10^6 cells; fas over-expression compared to the control (fas): no significant over-expression; also recorded: marginal changes; BAX overexpression (BAX): did not make significant changes
NC1CCCCC1N.O=P([O-])(O)OP(=O)([O-])O.[OH-].[OH-].[Pt+4] [dach-4, (Trans-1,2-cyclohexanediamine)-trans-dihyroxo(dihydrogenpyrophosphato)platinum(IV)] | 180 ± 15 | 116 ± 17 | 155 ± 17 |  |  | 
N.N.O=P1(O)[O][Pt][O]P(=O)(O)O1 [am-2, Diammine(dihydrogen pyrophosphato)platinum(II)] | 100 ± 11 | 120 ± 30 | > 200 | 2.9 ± 0.3 | 4.7 ± 0.2 | guanine base binding (H8 signal) (guanine base): only indicates the unbound guanine H8 signal but not platinum bound signal; pKa1 (value in parentheses) ([8]; second value printed in parentheses under pKa1, not explained): (3.8 ± 0.1)
NCCN.O=P([O-])(O)OP(=O)([O-])O.[OH-].[OH-].[Pt+4] [en-4, 1,2-Ethanediamine-trans-dihydroxo(dihydrogenpyrophosphato)platinum(IV)] | 170 ± 33 | > 200 | > 200 | <2 | 4.3 ± 0.1 | 
N.N.O=C([O-])C1(C(=O)[O-])CCC1.[Pt+2] [Carboplatin, diammine-1,1-dicarcarboxylatocyclobutane-platinum(II), reference compound] | 90 ± 13 | > 200 | > 200 |  |  | 
NCCN.O=P([O-])(O)OP(=O)([O-])O.[Pt+2] [en-2, 1,2-Ethanediamine(dihydrogenpyrophosphato)platinum(II)] |  |  |  | 2.2 ± 0.1 | 4.4 ± 0.1 | 
N.N.O=P1(O)OP(=O)(O)[O][Pt]([OH])([OH])[O]1 [am-4, Cis-diammine-trans-dihydroxo(dihydrogen pyrophosphato)platinum (IV)] | 175 ± 22 | > 200 | > 200 | 2.0 ± 0.1 | 4.7 ± 0.1 | 
